Common to all, as to format: cell-based
Assay [1] concerns human prostate cancer cells (PC3). Description: Cytotoxicity by SRB assay, PC3. The note with it: 0.01 μM to 100 μM for 72 h. The procedure: (§1) The human prostate cancer cells (PC3) and human osteosarcoma cells (MG-63) were obtained from Nawah Scientific Inc. (Mokatam, Cairo, Egypt) and cultured in DMEM (Dulbecco's modified eagle's medium), Gibco, USA, supplemented with fetal bovine serum (FBS) at a concentration of 10% and 100 U/mL of penicillin and streptomycin (PS). The Cells were incubated at 37° C. in a humidified environment that contained 5% CO2. Cells were seeded in 96-well plates as aliquots of 100 μL cell suspension and incubated in a complete media for 24 h. afterward, cells were treated with [3-(4-methoxyphenyl)-1,2,4-oxadiazol-5-yl]methanol at diverse concentrations ranging from 0.01 μM to 100 μM for 72 h. Then, cells were fixed at 4° C. for one hour with 150 μL of 10% trichloroacetic acid (TCA). After washing the cells five times with distilled water, 70 μL of sulforhodamine (SRB) solution (0.4% w/v) was added and incubated for 10 min at room temperature in a dark place. […] Then, 150 μL of Tris pH 10.5 (10 mM) was added, and the absorbance was measured at 540 nm using a BMG LABTECH®-FLUOstar Omega microplate reader (Ortenberg, Germany). Half maximal inhibitory concentrations (IC50) values were calculated for each experiment using GraphPad Prism 6 software. […] The inhibition was calculated using the following equation: Inhibition %=100−Average Viability
Background: The SRB assay estimates cell density from bound dye.

In assay [2] the test system is Pseudomonas aeruginosa. Description: Agar plate disc-diffusion, Pseudomonas aeruginosa. The settings on record: gram-negative; disc 10 μL of 10 mg/mL in DMSO, 37° C., 48 h. The procedure: (§2) The antimicrobial properties of the synthesized compounds were studied by the method of agar plate disc-diffusion. Sterilized filter papers (6 mm in diameter) were wetted with 10 μL of a solution of each compound to be tested, containing 10 mg/mL in DMSO, and the discs were allowed to air dry. The discs were then placed onto the surface of agar plates (nutrient agar for bacteria and Sabouraud's dextrose agar for fungi) seeded with the test organism. Each plate contained 15 mL of the agar medium, previously seeded with 0.2 mL of the broth culture of each organism pregrown for 18 h. The plates were incubated at 37° C. for 48 h, and 72 h for fungi. The inhibition zones were measured in mm. Discs impregnated with DMSO were used as a control, and its inhibition zone was subtracted from the tested compound actual inhibition zone.

Assay [3] concerns Staphylococcus aureus. Description: Agar plate disc-diffusion, Staphylococcus aureus. The settings on record: gram positive; disc 10 μL of 10 mg/mL in DMSO, 37° C., 48 h. The protocol:
as §2
In general terms: Agar diffusion results depend on both activity and mobility in agar.

Assay [4] has as its system Escherichia coli. Description: Agar plate disc-diffusion, Escherichia coli. The note with it: gram-negative; disc 10 μL of 10 mg/mL in DMSO, 37° C., 48 h. The procedure:
as §2

For assay [5], the system named is Bacillus cereus. In words: Agar plate disc-diffusion, Bacillus cereus. The note with it: gram positive; disc 10 μL of 10 mg/mL in DMSO, 37° C., 48 h. The procedure:
as §2

The subject of assay [6] is human osteosarcoma cells (MG-63). In words: Cytotoxicity by SRB assay, MG-63. The settings on record: MG-63 cells, 0.01 μM to 100 μM for 72 h. The protocol:
as §1

In assay [7] the test system is Chrysosporium keratinophilum. In words: Agar plate disc-diffusion, Chrysosporium keratinophilum. The settings on record: fungus; disc 10 μL of 10 mg/mL in DMSO, 72 h. The procedure: as §2
Assay [8] relates to Aspergillus flavus. Description: Agar plate disc-diffusion, Aspergillus flavus. The note with it: fungus; disc 10 μL of 10 mg/mL in DMSO, 72 h. The protocol:
as §2

The values that follow come from patent US12180172B1, “[3-(4-Methoxyphenyl)-1,2,4-oxadiazol-5-yl]methanol as an antitumor and antimicrobial compound” (KING FAISAL UNIVERSITY, priority 2023, dated 2024).

For the molecule `COc1ccc(-c2noc(CO)n2)cc1` [[3-(4-methoxyphenyl)-1,2,4-oxadiazol-5-yl]methanol], the antiproliferative activity entry in assay [1] and in assay [6] was “excellent antiproliferative activities” each time. The antibacterial activity result in assay [2], in assay [3], in assay [4] and in assay [5] was “high antimicrobial activities” in each case. For the same molecule, the antifungal activity entry in assay [7] and in assay [8] was “high antimicrobial activities” in each case.
